Key:
COX2 = COX2 (Ovis aries (Sheep), UniProt P79208); assay: COX-2 activity, colorimetric assay; format: biochemical, ovine; conditions: screening dose 100 μM; read-out: IC50 μM against COX2
Experimental: Compounds according to the present disclosure were tested for their in vitro ability to inhibit recombinant human PDE5, COX1 and COX2 enzymes at screening doses of 50, 100 and 100 μM respectively.
COX-1 and COX-2 activities were measured using purified ovine COX-1 and COX-2 with colorimetric assay kits obtained from Cayman Chemical Co. (Ann Arbor, Mich.). The activities of COX-1 and COX-2 were measured after the addition of arachidonic acid and incubation at 25° C. for 5 min by absorbance at 590 nm as specified by the manufacturer.

[1] = tested on: human colorectal HT-29 tumor cell line; assay: Tumor cell growth assay (Cell Titer Glo); format: cell-based; conditions: HT-29, 72 hours, read-out: IC50 μM against HT-29
PDE10 = PDE10 (Homo sapiens (Human), UniProt Q9Y233); assay: PDE isozyme selectivity, IMAP assay; format: biochemical
PDE10, sequence (Q9Y233 whole entry): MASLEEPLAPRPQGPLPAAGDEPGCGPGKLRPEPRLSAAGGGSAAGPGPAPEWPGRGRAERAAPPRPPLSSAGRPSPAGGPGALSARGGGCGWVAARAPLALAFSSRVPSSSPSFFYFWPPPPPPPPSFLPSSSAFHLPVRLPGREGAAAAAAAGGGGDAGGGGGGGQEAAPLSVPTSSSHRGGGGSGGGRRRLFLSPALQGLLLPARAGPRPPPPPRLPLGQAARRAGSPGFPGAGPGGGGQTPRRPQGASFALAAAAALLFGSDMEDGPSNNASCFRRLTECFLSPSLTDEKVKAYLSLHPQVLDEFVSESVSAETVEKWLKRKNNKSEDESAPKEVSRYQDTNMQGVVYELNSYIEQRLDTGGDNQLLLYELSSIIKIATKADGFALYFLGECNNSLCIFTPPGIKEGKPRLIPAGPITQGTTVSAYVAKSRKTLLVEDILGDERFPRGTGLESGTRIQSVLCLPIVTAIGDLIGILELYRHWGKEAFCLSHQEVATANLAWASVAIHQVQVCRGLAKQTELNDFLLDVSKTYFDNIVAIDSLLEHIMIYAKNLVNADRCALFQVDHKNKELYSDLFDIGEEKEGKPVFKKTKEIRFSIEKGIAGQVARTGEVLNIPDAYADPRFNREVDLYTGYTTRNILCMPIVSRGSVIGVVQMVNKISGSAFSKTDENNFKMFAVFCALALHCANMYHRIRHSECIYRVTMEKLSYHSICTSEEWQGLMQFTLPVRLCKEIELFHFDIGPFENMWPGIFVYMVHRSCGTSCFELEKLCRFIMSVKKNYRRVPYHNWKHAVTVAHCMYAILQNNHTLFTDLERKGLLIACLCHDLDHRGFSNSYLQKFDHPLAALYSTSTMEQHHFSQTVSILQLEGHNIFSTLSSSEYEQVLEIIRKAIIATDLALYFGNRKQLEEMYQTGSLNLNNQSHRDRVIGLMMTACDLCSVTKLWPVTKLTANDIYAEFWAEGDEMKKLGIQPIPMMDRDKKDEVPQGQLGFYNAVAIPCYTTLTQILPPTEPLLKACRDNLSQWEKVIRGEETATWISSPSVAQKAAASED
Experimental: (§1) PDE activity was measured using the IMAP fluorescence polarization assay (Molecular Devices) in which binding of hydrolyzed cyclic nucleotide substrate to immobilized metal coordination complexes increases fluorescence polarization (FP). Tetramethylrhodamine (TAMRA)-cGMP and fluorescein-cAMP were used as substrates, each at final concentration of 50 nmol/L. The PDE assay was done according to the manufacturer's specifications using either whole cell lysates or recombinant enzymes. FP was measured at excitation, emission wavelengths of either 530,590 nm for TAMRA-cGMP or 485,530 nm for fluorescein-cAMP using a Synergy4 (Biotek) microplate reader.

PDE11 = PDE11 (Homo sapiens (Human), UniProt Q9HCR9); assay: PDE isozyme selectivity, IMAP assay; format: biochemical
PDE11, sequence (Q9HCR9 whole entry): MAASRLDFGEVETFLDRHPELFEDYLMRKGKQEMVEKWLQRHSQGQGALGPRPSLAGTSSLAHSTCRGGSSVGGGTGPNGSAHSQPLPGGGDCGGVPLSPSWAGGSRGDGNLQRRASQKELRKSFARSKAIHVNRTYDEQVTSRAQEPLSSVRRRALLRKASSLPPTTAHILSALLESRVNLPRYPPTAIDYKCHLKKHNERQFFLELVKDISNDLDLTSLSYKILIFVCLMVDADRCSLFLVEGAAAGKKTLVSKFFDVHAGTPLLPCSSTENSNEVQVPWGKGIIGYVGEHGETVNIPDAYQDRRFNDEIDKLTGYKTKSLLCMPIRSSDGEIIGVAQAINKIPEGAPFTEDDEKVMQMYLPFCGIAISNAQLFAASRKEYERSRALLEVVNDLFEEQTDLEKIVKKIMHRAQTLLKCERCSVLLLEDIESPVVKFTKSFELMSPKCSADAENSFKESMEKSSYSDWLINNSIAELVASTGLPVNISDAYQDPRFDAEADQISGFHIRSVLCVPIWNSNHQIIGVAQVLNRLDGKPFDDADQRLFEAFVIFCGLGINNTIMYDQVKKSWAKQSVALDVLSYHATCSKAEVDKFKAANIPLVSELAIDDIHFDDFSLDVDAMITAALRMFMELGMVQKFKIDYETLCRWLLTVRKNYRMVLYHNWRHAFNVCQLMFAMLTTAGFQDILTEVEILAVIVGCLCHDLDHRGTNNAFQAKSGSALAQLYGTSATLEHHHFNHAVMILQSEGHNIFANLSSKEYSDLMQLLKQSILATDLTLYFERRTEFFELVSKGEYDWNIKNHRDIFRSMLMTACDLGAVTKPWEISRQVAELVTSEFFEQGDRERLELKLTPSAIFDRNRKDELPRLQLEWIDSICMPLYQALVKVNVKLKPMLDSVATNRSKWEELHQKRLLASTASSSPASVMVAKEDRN
Experimental: as §1

PDE1A = PDE1A (Homo sapiens (Human), UniProt P54750); assay: PDE isozyme selectivity, IMAP assay; format: biochemical
PDE1A, sequence (P54750 whole entry, species assumed): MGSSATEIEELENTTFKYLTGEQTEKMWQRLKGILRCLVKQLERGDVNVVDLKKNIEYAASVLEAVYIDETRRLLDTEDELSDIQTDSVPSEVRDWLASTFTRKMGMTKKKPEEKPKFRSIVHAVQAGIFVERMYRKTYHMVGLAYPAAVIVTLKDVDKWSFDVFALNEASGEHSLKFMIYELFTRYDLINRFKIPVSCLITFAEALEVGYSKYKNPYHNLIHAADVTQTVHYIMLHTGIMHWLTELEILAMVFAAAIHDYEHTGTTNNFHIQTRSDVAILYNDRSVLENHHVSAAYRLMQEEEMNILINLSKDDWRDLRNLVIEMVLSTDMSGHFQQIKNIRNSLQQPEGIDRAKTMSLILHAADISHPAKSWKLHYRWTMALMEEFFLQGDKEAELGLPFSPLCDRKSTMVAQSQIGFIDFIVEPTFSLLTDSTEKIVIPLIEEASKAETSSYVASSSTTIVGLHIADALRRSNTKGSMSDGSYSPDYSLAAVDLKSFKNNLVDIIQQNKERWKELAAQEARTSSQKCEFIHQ
Experimental: as §1

PDE3A = PDE3A (Homo sapiens (Human), UniProt Q14432); assay: PDE isozyme selectivity, IMAP assay; format: biochemical
PDE3A, sequence (Q14432 whole entry, species assumed): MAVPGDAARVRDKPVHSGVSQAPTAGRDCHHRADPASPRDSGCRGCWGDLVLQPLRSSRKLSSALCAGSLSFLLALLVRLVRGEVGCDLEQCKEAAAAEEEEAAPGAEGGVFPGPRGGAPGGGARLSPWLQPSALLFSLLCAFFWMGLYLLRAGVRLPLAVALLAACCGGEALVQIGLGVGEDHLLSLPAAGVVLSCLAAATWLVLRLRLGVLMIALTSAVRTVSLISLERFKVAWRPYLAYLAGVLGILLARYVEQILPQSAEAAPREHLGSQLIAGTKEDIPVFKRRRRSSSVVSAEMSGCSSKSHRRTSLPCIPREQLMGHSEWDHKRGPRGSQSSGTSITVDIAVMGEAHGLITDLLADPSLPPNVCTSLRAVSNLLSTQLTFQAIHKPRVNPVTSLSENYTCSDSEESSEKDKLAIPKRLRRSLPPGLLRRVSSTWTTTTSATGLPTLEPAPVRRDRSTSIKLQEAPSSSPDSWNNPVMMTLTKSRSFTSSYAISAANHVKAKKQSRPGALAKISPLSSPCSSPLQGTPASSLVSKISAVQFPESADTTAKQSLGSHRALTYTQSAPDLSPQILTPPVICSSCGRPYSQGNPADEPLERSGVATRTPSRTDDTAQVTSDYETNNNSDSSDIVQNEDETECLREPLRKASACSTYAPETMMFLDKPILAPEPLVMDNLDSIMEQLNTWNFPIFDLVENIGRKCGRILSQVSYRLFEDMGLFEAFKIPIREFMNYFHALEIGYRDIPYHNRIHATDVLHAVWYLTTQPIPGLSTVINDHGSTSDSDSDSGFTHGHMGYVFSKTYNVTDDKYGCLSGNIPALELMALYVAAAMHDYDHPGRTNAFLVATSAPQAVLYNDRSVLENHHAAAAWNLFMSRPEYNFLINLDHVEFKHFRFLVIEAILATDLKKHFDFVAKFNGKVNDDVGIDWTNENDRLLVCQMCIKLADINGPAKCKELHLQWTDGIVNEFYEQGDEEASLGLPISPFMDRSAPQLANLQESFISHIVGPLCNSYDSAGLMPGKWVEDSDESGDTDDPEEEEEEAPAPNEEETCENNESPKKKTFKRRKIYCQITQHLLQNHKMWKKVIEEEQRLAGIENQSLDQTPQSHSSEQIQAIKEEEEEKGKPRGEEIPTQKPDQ
Experimental: as §1

PDE3B = PDE3B (Homo sapiens (Human), UniProt Q13370); assay: PDE isozyme selectivity, IMAP assay; format: biochemical
PDE3B, sequence (Q13370 whole entry, species assumed): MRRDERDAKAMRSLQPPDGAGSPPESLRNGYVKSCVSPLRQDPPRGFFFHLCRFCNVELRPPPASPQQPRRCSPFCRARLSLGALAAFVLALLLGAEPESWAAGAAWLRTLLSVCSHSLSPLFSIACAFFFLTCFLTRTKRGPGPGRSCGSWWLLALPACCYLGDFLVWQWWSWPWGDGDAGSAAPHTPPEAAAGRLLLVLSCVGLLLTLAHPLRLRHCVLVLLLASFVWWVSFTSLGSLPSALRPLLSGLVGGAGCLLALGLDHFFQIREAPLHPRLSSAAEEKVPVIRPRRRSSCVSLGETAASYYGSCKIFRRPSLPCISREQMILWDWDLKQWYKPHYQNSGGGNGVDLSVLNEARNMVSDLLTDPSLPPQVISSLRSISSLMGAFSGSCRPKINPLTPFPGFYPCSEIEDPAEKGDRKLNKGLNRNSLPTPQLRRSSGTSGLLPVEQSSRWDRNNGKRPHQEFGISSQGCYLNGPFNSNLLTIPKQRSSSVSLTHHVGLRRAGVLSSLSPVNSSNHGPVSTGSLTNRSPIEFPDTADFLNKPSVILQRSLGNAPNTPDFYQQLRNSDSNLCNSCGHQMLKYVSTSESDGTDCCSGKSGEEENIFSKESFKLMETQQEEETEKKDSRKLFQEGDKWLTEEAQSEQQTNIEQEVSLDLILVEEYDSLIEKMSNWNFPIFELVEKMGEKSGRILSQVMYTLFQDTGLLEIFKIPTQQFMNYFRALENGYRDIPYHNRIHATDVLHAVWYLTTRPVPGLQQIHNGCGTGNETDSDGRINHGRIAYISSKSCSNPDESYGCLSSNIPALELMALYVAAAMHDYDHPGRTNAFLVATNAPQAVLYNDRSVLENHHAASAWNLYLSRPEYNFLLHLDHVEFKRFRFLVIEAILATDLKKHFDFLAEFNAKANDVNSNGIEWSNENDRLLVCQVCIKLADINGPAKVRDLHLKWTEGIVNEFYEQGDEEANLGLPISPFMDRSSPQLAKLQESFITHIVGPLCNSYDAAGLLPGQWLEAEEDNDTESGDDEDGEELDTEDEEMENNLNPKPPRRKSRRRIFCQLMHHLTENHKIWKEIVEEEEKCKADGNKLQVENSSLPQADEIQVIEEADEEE
Experimental: as §1

PDE5A = PDE5A (Homo sapiens (Human), UniProt O76074); assay: PDE isozyme selectivity, IMAP assay; format: biochemical
Experimental: as §1

PDE9A = PDE9A (Homo sapiens (Human), UniProt O76083); assay: PDE isozyme selectivity, IMAP assay; format: biochemical; conditions: substrate cGMP
Experimental: as §1

A498 = assay: Tumor cell growth inhibition panel; format: cell-based; conditions: Homo sapiens, Renal
Experimental: (§2) Thus, compound 12 is able to show broad spectrum tumor cell growth inhibitory activity independent of cyclooxygenase inhibition, whereas PDE5 may be the major contributor to such activity.
(§3) The human tumor cell lines were purchased from the American Type Culture Collection (Mansassas, Va.) and maintained in RPMI-1640+2.0 g/L glucose pH 7.4+5% FBS+4 mM glutamine (complete growth medium), incubated at 37° C. in 5% CO2, and passaged at subconfluent density. The human fetal colon FHC cells were cultured in DMEM:F12 medium supplemented with 10% FBS, cholera toxin (10 ng/mL), 5 μg/ml transferrin, 5 μg/ml insulin, and 100 ng/ml hydrocortisone. The passage number was routinely limited to approximately 20 and morphology monitored with each passage, but no additional authentication of the cell lines was performed.
(§4) Cells were plated in 96-well microtiter plates at a density of 5,000 cells per well and allowed to adhere overnight prior to treatment. Cells were treated with a 2-log concentration range of either SS or SBA and incubated for an additional 72 hours. For siRNA assays, cells were transfected in OptiMEM media with 0.5% SureFECT transfection reagent and 200 nmol/L of either negative control or PDE5 siRNA and incubated at 37° C. for 24 h prior to treatment. At the end of the incubation period, relative cell viability was compared to vehicle controls using the Cell Titer Glo Assay (Promega, Madison Wis.), which measures viable cells based on ATP content, according to the manufacturer's specifications.

CCFR-CEM = assay: Tumor cell growth inhibition panel; format: cell-based; conditions: Homo sapiens, Hematopoietic
Experimental: as §2, §3, §4

COL0205 = assay: Tumor cell growth inhibition panel; format: cell-based; conditions: Homo sapiens, Colon
Experimental: as §2, §3, §4

HT29 = assay: Tumor cell growth inhibition panel; format: cell-based; conditions: Homo sapiens, HT-29, Colon
Experimental: as §2, §3, §4

Hs578T = assay: Tumor cell growth inhibition panel; format: cell-based; conditions: Homo sapiens, Hs-578T, Breast
Experimental: as §2, §3, §4

KM12 = assay: Tumor cell growth inhibition panel; format: cell-based; conditions: Homo sapiens, Colon
Experimental: as §2, §3, §4

MALME-3M = assay: Tumor cell growth inhibition panel; format: cell-based; conditions: Homo sapiens, Melanoma
Experimental: as §2, §3, §4

MCF-7 = assay: Tumor cell growth inhibition panel; format: cell-based; conditions: Homo sapiens, MCF7, Breast
Experimental: as §2, §3, §4

MDA-MB-468 = assay: Tumor cell growth inhibition panel; format: cell-based; conditions: Homo sapiens, Breast
Experimental: as §2, §3, §4

NCI-H322M = assay: Tumor cell growth inhibition panel; format: cell-based; conditions: Homo sapiens, Lung
Experimental: as §2, §3, §4

OVCAR-4 = assay: Tumor cell growth inhibition panel; format: cell-based; conditions: Homo sapiens, Ovarian
Experimental: as §2, §3, §4

OVCAR-5 = assay: Tumor cell growth inhibition panel; format: cell-based; conditions: Homo sapiens, Ovarian
Experimental: as §2, §3, §4

SN12C = assay: Tumor cell growth inhibition panel; format: cell-based; conditions: Homo sapiens, Renal
Experimental: as §2, §3, §4

SNB-19 = assay: Tumor cell growth inhibition panel; format: cell-based; conditions: Homo sapiens, CNS
Experimental: as §2, §3, §4

UACC-257 = assay: Tumor cell growth inhibition panel; format: cell-based; conditions: Homo sapiens, Melanoma
Experimental: as §2, §3, §4

[2] = tested on: human tumor cell lines of different origins; assay: Tumor cell growth inhibition panel, overall; format: cell-based; conditions: in words; including the adriamycin resistant cell line ADR/NCl-RES
Experimental: as §2, §3
Cells were plated in 96-well microtiter plates at a density of 5,000 cells per well and allowed to adhere overnight prior to treatment. Cells were treated with a 2-log concentration range of either SS or SBA and incubated for an additional 72 hours. For siRNA assays, cells were transfected in OptiMEM media with 0.5% SureFECT transfection reagent and 200 nmol/L of either negative control or PDE5 siRNA and incubated at 37° C. for 24 h prior to treatment. […]

Molecule `CC(C)(C)C1=NN(c2ccc(C(=O)O)cc2)C(c2ccc(Cl)cc2Cl)C1` (stereo not shown) [Compound 12, 4-(3-(tert-Butyl)-5-(2,4-dichlorophenyl)-4,5-dihydro-1H-pyrazol-1-yl)benzoic acid] has an IC50 (COX2) of over 100 µM, an IC50 [1] of 29.8 µM and an IC50 (PDE10; PDE10, substrate cAMP) of over 50 µM. The IC50 (PDE10; PDE10, substrate cGMP) was over 50 µM, the IC50 (PDE11; PDE11, substrate cAMP) was over 50 µM and the IC50 (PDE11; PDE11, substrate cGMP) was over 50 µM. For the same molecule, the IC50 (PDE1A; substrate cAMP) was over 50 µM, the IC50 (PDE1A; substrate cGMP) was over 50 µM and the IC50 (PDE3A; substrate cAMP) was over 50 µM. It also gave an IC50 (PDE3A; substrate cGMP) of over 50 µM, an IC50 (PDE3B; substrate cAMP) of over 50 µM and an IC50 (PDE3B; substrate cGMP) of over 50 µM. The IC50 (PDE5A; PDE5A, substrate cGMP) was 3.7 µM, the “selectivity for PDE5 relative to other cGMP degrading PDE isozymes” value (PDE5A; in words) was “selective inhibitor for PDE5” and the IC50 (PDE9A) was over 50 µM. The IC50 (A498) was 33 µM, the IC50 (CCFR-CEM) was 33.1 µM and the IC50 (COL0205) was 31.3 µM. The IC50 (HT29) was 29.8 µM, the IC50 (Hs578T) was 48.9 µM and the IC50 (KM12) was 34.7 µM. For the same molecule, the IC50 (MALME-3M) was 65.7 µM, the IC50 (MCF-7) was 52.4 µM and the IC50 (MDA-MB-468) was 58.5 µM. It also gave an IC50 (NCI-H322M) of 49.8 µM, an IC50 (OVCAR-4) of 54.9 µM and an IC50 (OVCAR-5) of 59.4 µM. For the same molecule, the IC50 (SN12C) was 50 µM, the IC50 (SNB-19) was 52.8 µM and the IC50 (UACC-257) was 70 µM. The “tumor cell growth inhibitory activity” value [2] was “broad spectrum growth inhibitory activity”.

— patent US9388139B2, “Derivatives of celeboxib, use thereof and preparation thereof” (German University, priority 2011, dated 2016)
